How the values were obtained:
BaF3 [1] = assay: Antiproliferative activity against mouse Ba/F3 cells harbouring FLT3 ITD mutant assessed as growth inhibition measured after 72 hrs by CellTiter-Glo assay; assay type: functional
Focal adhesion kinase 1 = Focal adhesion kinase 1 (Homo sapiens, UniProt Q05397); assay: Inhibition of recombinant FAK (unknown origin) by radiometric kinase assay
BaF3 [2] = assay: Antiproliferative activity against mouse Ba/F3 cells harbouring FLT3 D835Y mutant assessed as growth inhibition measured after 72 hrs by CellTiter-Glo assay; assay type: functional
CYP2D6 = CYP2D6 (Homo sapiens, UniProt P10635); assay: Inhibition of CYP2D6 (unknown origin) at 10 uM relative to control; assay type: ADME
CYP2D6, sequence (P10635 whole entry): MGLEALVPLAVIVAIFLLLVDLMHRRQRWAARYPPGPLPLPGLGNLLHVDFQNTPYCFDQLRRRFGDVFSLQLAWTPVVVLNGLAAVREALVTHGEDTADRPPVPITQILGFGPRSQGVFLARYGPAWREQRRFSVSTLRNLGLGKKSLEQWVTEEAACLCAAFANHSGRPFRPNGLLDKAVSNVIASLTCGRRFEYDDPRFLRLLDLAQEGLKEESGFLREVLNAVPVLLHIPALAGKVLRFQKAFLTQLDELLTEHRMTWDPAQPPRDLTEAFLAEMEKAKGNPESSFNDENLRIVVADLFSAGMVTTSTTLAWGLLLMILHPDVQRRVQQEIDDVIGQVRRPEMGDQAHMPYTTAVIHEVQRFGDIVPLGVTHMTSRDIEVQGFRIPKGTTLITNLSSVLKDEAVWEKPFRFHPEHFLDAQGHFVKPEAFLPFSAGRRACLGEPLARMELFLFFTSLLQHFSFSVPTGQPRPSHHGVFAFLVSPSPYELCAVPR

CYP3A4 = CYP3A4 (Homo sapiens, UniProt P08684); assay: Inhibition of CYP3A4 (unknown origin) at 10 uM relative to control; assay type: ADME
CYP3A4, sequence (P08684 whole entry): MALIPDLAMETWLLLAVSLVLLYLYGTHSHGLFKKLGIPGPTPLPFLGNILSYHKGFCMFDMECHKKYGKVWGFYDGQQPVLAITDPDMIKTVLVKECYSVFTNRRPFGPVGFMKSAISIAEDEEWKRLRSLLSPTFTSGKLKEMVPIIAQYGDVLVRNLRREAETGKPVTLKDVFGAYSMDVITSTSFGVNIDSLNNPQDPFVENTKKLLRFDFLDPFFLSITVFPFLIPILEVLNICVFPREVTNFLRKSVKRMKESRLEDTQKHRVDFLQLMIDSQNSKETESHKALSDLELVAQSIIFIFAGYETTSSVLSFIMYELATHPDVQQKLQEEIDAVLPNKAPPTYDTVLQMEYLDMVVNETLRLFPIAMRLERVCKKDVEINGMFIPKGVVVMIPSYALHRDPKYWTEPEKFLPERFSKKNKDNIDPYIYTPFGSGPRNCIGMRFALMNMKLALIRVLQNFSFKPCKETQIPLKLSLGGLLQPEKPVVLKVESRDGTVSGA

[3] = Metabolic stability in human liver microsomes assessed as compound remaining at 1 uM measured after 1 hr; assay type: ADME, Microsome; details: read-out: Stabilty
MDA-MB-231 = assay: Antiproliferative activity against human MDA-MB-231 cells assessed as growth inhibition measured after 72 hrs by CellTiter-Glo assay; assay type: functional
[4] = Antiproliferative activity against human A375P cells assessed as growth inhibition measured after 72 hrs by CellTiter-Glo assay; assay type: functional
CYP1A2 = target: T1, CYP1A2 (Homo sapiens, UniProt P05177); assay: Inhibition of CYP1A2 (unknown origin) at 10 uM relative to control; assay type: ADME
T1 sequence (P05177 whole entry): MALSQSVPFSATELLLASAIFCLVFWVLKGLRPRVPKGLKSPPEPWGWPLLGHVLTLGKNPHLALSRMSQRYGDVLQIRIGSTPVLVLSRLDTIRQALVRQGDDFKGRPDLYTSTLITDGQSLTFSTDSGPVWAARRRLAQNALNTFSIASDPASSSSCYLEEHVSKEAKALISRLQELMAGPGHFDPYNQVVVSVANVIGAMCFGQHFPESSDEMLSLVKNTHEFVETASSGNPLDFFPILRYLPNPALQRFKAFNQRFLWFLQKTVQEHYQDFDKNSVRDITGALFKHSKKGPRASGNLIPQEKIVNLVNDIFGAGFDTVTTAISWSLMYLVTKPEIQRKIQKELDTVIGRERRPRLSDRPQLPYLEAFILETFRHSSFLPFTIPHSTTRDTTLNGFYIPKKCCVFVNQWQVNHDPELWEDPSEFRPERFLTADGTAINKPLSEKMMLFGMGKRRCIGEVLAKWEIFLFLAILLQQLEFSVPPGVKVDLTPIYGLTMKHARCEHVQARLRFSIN

BaF3 [5] = assay: Antiproliferative activity against mouse Ba/F3 cells harbouring FLT3 ITD F691I mutant assessed as growth inhibition measured after 72 hrs by CellTiter-Glo assay; assay type: functional
[6] = Inhibition of FLT3 D835Y (unknown origin); design: species or system Homo sapiens
BaF3 [7] = assay: Antiproliferative activity against mouse Ba/F3 cells assessed as growth inhibition measured after 72 hrs by CellTiter-Glo assay; assay type: functional
CYP2C19 = CYP2C19 (Homo sapiens, UniProt P33261); assay: Inhibition of CYP2C19 (unknown origin) at 10 uM relative to control; assay type: ADME
CYP2C19, sequence (P33261 whole entry): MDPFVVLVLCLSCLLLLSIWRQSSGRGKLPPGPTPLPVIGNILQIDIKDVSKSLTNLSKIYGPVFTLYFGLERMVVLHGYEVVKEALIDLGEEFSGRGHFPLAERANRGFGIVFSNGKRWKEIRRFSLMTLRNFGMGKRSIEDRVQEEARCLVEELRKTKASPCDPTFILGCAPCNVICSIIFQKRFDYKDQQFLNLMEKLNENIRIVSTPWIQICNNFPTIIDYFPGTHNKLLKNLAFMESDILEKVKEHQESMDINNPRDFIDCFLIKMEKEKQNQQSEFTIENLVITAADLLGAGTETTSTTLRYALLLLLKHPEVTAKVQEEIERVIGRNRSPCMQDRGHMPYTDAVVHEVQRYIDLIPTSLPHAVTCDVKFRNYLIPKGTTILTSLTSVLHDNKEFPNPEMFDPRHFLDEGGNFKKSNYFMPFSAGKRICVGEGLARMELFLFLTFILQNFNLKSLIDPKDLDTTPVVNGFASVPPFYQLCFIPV

HCT-116 = assay: Antiproliferative activity against human HCT-116 cells assessed as growth inhibition measured after 72 hrs by CellTiter-Glo assay; assay type: functional
BaF3 [8] = assay: Antiproliferative activity against mouse Ba/F3 cells harbouring FLT3 ITD F691L mutant assessed as growth inhibition measured after 72 hrs by CellTiter-Glo assay; assay type: functional
BaF3 [9] = assay: Antiproliferative activity against mouse Ba/F3 cells harbouring FLT3 ITD D835Y mutant assessed as growth inhibition measured after 72 hrs by CellTiter-Glo assay; assay type: functional
CYP2C9 = CYP2C9 (Homo sapiens, UniProt P11712); assay: Inhibition of CYP2C9 (unknown origin) at 10 uM relative to control; assay type: ADME
CYP2C9, sequence (P11712 whole entry): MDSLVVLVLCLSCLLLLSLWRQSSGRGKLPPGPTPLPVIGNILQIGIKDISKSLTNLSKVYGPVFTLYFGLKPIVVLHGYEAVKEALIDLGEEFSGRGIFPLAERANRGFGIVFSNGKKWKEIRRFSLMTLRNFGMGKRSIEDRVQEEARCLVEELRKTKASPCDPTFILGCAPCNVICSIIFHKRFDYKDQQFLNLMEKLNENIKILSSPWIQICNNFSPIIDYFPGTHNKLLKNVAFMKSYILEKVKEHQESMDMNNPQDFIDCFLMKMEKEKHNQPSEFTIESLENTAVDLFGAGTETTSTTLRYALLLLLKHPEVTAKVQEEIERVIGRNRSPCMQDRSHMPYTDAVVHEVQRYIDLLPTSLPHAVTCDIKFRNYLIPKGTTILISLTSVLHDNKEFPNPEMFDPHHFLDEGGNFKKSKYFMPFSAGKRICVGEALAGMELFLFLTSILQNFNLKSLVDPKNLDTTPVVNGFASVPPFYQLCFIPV

Focal adhesion kinase 1, sequence (Q05397 whole entry): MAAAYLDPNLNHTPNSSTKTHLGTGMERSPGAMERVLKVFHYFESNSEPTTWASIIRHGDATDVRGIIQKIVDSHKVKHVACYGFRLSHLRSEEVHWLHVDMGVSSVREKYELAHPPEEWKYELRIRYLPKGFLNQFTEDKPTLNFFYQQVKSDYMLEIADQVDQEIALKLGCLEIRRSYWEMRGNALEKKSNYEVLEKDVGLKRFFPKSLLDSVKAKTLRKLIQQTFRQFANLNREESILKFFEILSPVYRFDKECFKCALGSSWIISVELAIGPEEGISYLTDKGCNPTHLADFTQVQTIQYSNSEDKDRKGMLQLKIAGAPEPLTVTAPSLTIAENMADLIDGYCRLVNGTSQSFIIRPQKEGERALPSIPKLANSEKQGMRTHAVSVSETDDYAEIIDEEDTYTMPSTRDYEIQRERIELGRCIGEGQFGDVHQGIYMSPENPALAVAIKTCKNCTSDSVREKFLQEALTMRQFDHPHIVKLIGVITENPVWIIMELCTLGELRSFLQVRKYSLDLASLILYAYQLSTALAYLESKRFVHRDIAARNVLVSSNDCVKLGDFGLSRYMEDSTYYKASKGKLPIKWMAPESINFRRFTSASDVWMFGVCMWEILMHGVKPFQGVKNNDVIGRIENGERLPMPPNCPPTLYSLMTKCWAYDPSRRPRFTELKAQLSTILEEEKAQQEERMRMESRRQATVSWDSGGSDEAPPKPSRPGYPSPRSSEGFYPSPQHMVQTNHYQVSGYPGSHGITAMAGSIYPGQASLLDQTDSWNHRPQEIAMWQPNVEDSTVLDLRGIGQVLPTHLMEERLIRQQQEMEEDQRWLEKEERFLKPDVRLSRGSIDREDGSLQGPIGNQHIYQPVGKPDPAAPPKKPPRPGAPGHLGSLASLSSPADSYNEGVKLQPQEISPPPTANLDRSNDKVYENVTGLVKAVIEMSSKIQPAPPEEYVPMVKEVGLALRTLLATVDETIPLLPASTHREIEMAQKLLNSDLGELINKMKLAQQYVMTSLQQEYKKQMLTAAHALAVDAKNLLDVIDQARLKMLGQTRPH

Structure (SMILES)	GI50 (BaF3 [1]; Mus musculus, BaF3)	IC50 (Focal adhesion kinase 1)	GI50 (BaF3 [2]; Mus musculus, BaF3)	inhibition at 10 µM (CYP2D6)	inhibition at 10 µM (CYP3A4)	remaining at 1 h, 1 µM [3]	GI50 (MDA-MB-231; Homo sapiens, MDA-MB-231)	GI50 ([4]; Homo sapiens, A375P)	inhibition at 10 µM (CYP1A2)	GI50 (BaF3 [5]; Mus musculus, BaF3)	IC50 [6]	GI50 (BaF3 [7]; Mus musculus, BaF3)	inhibition at 10 µM (CYP2C19)	GI50 (HCT-116; Homo sapiens, HCT-116)	GI50 (BaF3 [8]; Mus musculus, BaF3)	GI50 (BaF3 [9]; Mus musculus, BaF3)	inhibition at 10 µM (CYP2C9)	other results
CCN1CCN(c2ccc(Nc3ncc4scc(-c5ccc6cc[nH]c6c5)c4n3)cc2)CC1	20.8 nM	54 nM	6.2 nM	89.4%	76%	89.3%	570 nM	500 nM	67.3%	142 nM	< 0.5 nM	647 nM	76.5%	170 nM	57.7 nM	32.3 nM	91.7%	–
CCN1CCN(c2ccc(Nc3ncc4scc(-c5cccc(N6CCCS6(=O)=O)c5)c4n3)cc2)CC1	46.3 nM	33 nM	9.4 nM	91.3%	59.6%	73.4%	530 nM	410 nM	67.9%	568 nM	< 0.5 nM	371 nM	75.7%	340 nM	223 nM	23.2 nM	74.1%	–
CCN1CCN(c2ccc(Nc3ncc4scc(-c5cccc([N+](=O)[O-])c5)c4n3)cc2)CC1	23.4 nM	21 nM	4 nM	100%	55.1%	73.1%	260 nM	500 nM	44.8%	234 nM	< 0.5 nM	511 nM	82.9%	110 nM	136 nM	20.5 nM	100%	–
CS(=O)(=O)Nc1cccc(-c2csc3cnc(Nc4ccc(N5CCC(O)CC5)cc4)nc23)c1	–	16 nM	–	61.5%	57.9%	54.8%	–	–	34.9%	–	< 0.5 nM	–	56.5%	–	–	–	–	GI50 (BaF3 [1]): 14.5 nM; GI50 (BaF3 [2]): 23 nM; GI50 (MDA-MB-231): 440 nM; GI50 [4]: 1930 nM; GI50 (BaF3 [5]): 587 nM; GI50 (BaF3 [7]): 600 nM; GI50 (HCT-116): 520 nM; GI50 (BaF3 [8]): 299 nM; GI50 (BaF3 [9]): 14 nM
CS(=O)(=O)Nc1cccc(-c2csc3cnc(Nc4ccc(N5CCNCC5)cc4)nc23)c1	7.4 nM	12 nM	1.6 nM	84.7%	57.3%	100%	460 nM	490 nM	67.5%	183 nM	< 0.5 nM	550 nM	57.5%	250 nM	103 nM	11 nM	63.2%	–
CNC(=O)c1ccccc1Nc1nc(Nc2ccc(N3CCOCC3)cc2OC)ncc1Cl	–	–	–	83.2%	71.2%	–	1490 nM	1690 nM	73.3%	–	–	–	50.5%	270 nM	–	–	27%	–
CCN1CCN(c2ccc(Nc3ncc4scc(-c5cccc(OC)c5)c4n3)cc2)CC1	1100 nM	12 nM	46.5 nM	86.4%	72.1%	83.7%	280 nM	510 nM	35.1%	390 nM	< 0.5 nM	405 nM	79.4%	240 nM	222 nM	90.7 nM	89.3%	–
CCN1CCN(c2ccc(Nc3ncc4scc(-c5ccccc5)c4n3)cc2)CC1	10.8 nM	10 nM	2.2 nM	84.1%	81%	92.6%	630 nM	400 nM	30.9%	192 nM	< 0.5 nM	174 nM	96.5%	1140 nM	67.5 nM	153 nM	92.1%	–

From ChEMBL document CHEMBL4837239, “Identification of Thieno[3,2-d]pyrimidine Derivatives as Dual Inhibitors of Focal Adhesion Kinase and FMS-like Tyrosine Kinase 3” (J Med Chem, 2021)
